Assay results: US6844174B2, “Fermentation process for lipstatin and method of extracting lipstatin from a fermentation broth” (Biogal Gyogyszergyar Rt., priority 2001, dated 2005)

System: Streptomyces toxytricini
Assay: toxic level of linoleic acid in liquid culture of Streptomyces toxytricini
Assay type: cell-based
Text: With Streptomyces toxytricini, the toxic level of linoleic acid in liquid culture is about 2,300-3,000 ppm. […] For this reason, the pH of lipstatin fermentation was controlled so that the linoleic acid being liberated from fats and oils was enough for the lipstatin biosynthesis but not raised to a toxic level.

**Q.** How did the “toxic level of linoleic acid in liquid culture” value turn out when `CCCCC/C=C\C/C=C\CCCCCCCC(=O)O` [linoleic acid] was run?
**A.** 2,300-3,000 ppm
